In PMC5107132 (European journal of pharmacology, 2016):
Marks after values point to notes of the source that are not given here.

Test system: Wistar rats
Assay: Rotarod test
Type: in vivo, rat
Conditions: 15 mg/kg MP-III-022 in combination with 15 mg/kg flumazenil (FLU), i.p.

C#Cc1ccc2c(c1)C(c1ccccc1F)=N[C@H](C)c1c(C(=O)NC)ncn1-2 [MP-III-022, (R)-8-Ethynyl-6-(2-fluorophenyl)-N,4-dimethyl-4H-benzo[f]imidazo[1,5-a][1,4]diazepine-3-carboxamide]
Rotarod, time remaining on the rod revolving at 15 rpm: 175.17 ± 4.83^a,d s
